From patent publication US9394284B2, “Compounds act at multiple prostaglandin receptors giving a general anti-inflammatory response” (Allergan, Inc., priority 2010, dated 2016) come the findings set out here.

Common to all, as to assay type: cell-based
Assay [1] concerns the target T1, human prostanoid FP receptor (Homo sapiens, UniProt P43088).
T1 construct: expressed in transfected cells
Nature of the assay: FLIPR Ca2+ signaling antagonist assay, FP receptor stable cell line. Conditions: HEK-293 EBNA stable cell line; standard agonist 17-phenyl-PGF2α; NA = inactive (no antagonism or Kb 10,000 nM); PAg, Ag not defined. The procedure, abridged: (§1)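 Peak Fluo-4 fluorescence (ex 470–495, em 515–575 nm) was read for 3.5 min on FLIPR after agonist injection and expressed relative to 10^−6 M standard agonist. Cells were HEK-293 EBNA transfectants. Test compound was added 4.5 min beforehand at 0.1–30 μM, or 0.067–1 μM for TP.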

In assay [2] the target is T2, human prostanoid EP3 receptor (Homo sapiens, UniProt P43115).
T2 construct: expressed in transfected cells
T2 sequence (P43115 1-390): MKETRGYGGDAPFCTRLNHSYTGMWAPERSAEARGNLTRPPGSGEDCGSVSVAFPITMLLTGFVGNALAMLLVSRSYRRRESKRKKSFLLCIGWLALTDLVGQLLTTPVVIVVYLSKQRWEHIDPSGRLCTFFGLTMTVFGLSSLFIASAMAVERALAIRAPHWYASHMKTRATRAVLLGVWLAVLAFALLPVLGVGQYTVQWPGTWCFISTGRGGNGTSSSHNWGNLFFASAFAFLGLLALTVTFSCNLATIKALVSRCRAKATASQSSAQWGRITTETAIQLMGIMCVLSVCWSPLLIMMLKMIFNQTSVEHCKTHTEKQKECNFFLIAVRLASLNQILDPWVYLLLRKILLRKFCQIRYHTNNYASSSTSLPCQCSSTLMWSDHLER
Nature of the assay: FLIPR Ca2+ signaling antagonist assay, EP3 receptor stable cell line. To be noted: HEK-293 EBNA stable cell line; standard agonist PGE2; NA = inactive (no antagonism or Kb 10,000 nM); PAg, Ag not defined. On the procedure:
The above compounds were tested for PG antagonist activity as follows using human recombinant prostanoid receptor (DP1, EP1-4, FP, IP and TP) stable cell lines:
In order to measure the response of Gs and Gi coupled prostanoid receptors as a Ca^2+ signal, chimeric G protein cDNAs were used. Stable cell lines over-expressing human prostanoid DP1, EP1-4, FP, IP, and TP receptors were established as follows:
Briefly, human prostanoid DP1, EP2, and EP4 receptor cDNAs were co-transfected with chimeric Gqs cDNA containing a haemagglutanin (HA) epitope; human prostanoid EP3 receptors were co-transfected with chimeric Gqi-HA; human EP1, FP, IP, and TP receptor cDNAs were expressed with no exogenous G-proteins. Gqs and Gqi chimeric cDNAs (Molecular Devices, Sunnyvale, Calif., U.S.A.), as well as cDNAs of prostanoid receptors, were cloned into a pCEP4 vector with a hygromycin B selection marker. Transfection into HEK-293 EBNA (Epstein-Barr virus nuclear antigen) cells was achieved by the FuGENE 6 transfection Reagent (Roche Applied Science, Indianapolis, Ind., USA). Stable transfectants were selected according to hygromycin resistance. Because Gqs and Gqi contained an HA epitope, G-protein expression was detected by Western blotting analysis using anti-mouse HA monoclonal antibody and horseradish peroxidase (HRP)-conjugated secondary antibody, while functional expression of prostanoid receptors was detected by FLIPR screening (Matias et al., 2004). These stable cell lines were validated using previously published antagonists at 10 μM against serial dilutions of standard agonists by FLIPR functional assays for Ca^2+ Signaling (as described below).
Ca^2+ signaling studies were performed using a FLIPR TETRA system (Molecular Devices, Sunnyvale, Calif., USA) in the 384-format. This is a high-throughput instrument for cell-based assays to monitor Ca^2+ signaling associated with GPCRs and ion channels. Cells were seeded at a density of 5×10^4 cells/well in BioCoat poly-D-lysine coated, black wall, clear bottom 384-well plates (BD Biosciences, Franklin lakes, NJ, USA) and allowed to attach overnight in an incubator at 37° C. The cells were then washed twice with HBSS-HEPES buffer (Hanks' balanced salt solution without bicarbonate and phenol red, 20 mM HEPES, pH 7.4) using an ELx405 Select CW Microplate Washer (BioTek, Winooski, Vt., USA). After 60 min of dye-loading in the dark using the Ca^2+-sensitive dye Fluo-4AM (Invitrogen, Carlsbad, Calif., USA), at a final concentration of 2×10^−6M, the plates were washed 4 times with HBSS-HEPES buffer to remove excess dye and leaving 50 μl of buffer in each well. The plates were then placed in the FLIPR TETRA instrument and allowed to equilibrate at 37° C. AGN-211377 was added in a 25 μl volume to each well to give final concentrations of 0.1 μM, 0.3 μM, 1 μM, 3 μM, 10 μM, and 30 μM; or 0.067 μM, 0.1 μM, 0.2 μM, 0.3 μM, 0.67 μM, and 1 μM for cells over-expressing TP receptors. After 4.5 minutes, a 7-point serial dilution of the standard agonist for the corresponding receptor, in a 25 μl volume was injected at the final concentrations from 10^−11M to 10^−5M in 10-fold serial dilution increments for cells expressing human recombinant DP1, EP1, EP2, EP3, EP4, FP, and IP receptors. The dose range for the standard agonist for human recombinant TP receptors was from 10^−12 M to 10^−6 M. HBSS-HEPES buffer was used as the negative control for the standard agonists. Cells were excited with LED (light emitting diode) excitation at 470-495 nm and emission was measured through an emission filter at 515-575 nm. Assay plates were read for 3.5 minutes using the FLIPR^TETRA. The peak increase in fluorescence intensity was recorded for each well. On each plate, negative controls, dose response of positive controls, and co-treatments of antagonist-agonist for each dose were in triplicates.
Standard agonists were as follows: DP=BW 245C, EP1-EP4=PGE2, FP=17-phenyl-PGF2α, IP=Cicaprost, and TP=U-46619. […]

The target of assay [3] is T3, human prostanoid TP receptor (Homo sapiens, UniProt P21731).
T3 construct: expressed in transfected cells
T3 sequence (P21731 1-343): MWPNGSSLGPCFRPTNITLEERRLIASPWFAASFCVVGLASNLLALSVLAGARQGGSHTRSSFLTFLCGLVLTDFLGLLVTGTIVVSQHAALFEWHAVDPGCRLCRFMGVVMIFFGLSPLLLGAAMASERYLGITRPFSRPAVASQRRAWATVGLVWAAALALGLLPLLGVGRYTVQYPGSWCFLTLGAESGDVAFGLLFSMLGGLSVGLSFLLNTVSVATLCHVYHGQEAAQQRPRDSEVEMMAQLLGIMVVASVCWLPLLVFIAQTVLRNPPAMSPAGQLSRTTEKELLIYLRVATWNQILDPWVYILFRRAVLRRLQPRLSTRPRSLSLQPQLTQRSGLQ
Nature of the assay: FLIPR Ca2+ signaling antagonist assay, TP receptor stable cell line. Conditions: HEK-293 EBNA stable cell line; standard agonist U-46619; NA = inactive (no antagonism or Kb 10,000 nM); PAg, Ag not defined. An outline of the steps:
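Functional antagonism measured by Ca2+ flux at 37 °C. Agonist ranges were 10^−11 to 10^−5 M, or 10^−12 to 10^−6 M for TP with U-46619; PGE2 for EP1/EP3, BW 245C for DP1. Compound spanned 0.1–30 μM except TP, 0.067–1 μM.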

The target of assay [4] is T4, human prostanoid EP4 receptor (Homo sapiens, UniProt P35408).
T4 construct: expressed in transfected cells
Nature of the assay: FLIPR Ca2+ signaling antagonist assay, EP4 receptor stable cell line. Conditions: HEK-293 EBNA stable cell line; standard agonist PGE2; NA = inactive (no antagonism or Kb 10,000 nM); PAg, Ag not defined. The procedure, abridged:
as §1

Where only a bound is given, the exact number is not on record here.

T1 sequence (P43088 whole entry): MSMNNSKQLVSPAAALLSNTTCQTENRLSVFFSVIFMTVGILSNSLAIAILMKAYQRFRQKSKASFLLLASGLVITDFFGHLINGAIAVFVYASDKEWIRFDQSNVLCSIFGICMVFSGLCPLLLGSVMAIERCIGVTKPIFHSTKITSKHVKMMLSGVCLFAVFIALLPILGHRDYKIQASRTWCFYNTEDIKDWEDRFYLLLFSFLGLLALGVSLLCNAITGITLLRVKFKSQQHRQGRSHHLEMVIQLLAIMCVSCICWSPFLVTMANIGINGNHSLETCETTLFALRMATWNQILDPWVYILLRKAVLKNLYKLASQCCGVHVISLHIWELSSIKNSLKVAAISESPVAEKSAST
T4 sequence (P35408 whole entry): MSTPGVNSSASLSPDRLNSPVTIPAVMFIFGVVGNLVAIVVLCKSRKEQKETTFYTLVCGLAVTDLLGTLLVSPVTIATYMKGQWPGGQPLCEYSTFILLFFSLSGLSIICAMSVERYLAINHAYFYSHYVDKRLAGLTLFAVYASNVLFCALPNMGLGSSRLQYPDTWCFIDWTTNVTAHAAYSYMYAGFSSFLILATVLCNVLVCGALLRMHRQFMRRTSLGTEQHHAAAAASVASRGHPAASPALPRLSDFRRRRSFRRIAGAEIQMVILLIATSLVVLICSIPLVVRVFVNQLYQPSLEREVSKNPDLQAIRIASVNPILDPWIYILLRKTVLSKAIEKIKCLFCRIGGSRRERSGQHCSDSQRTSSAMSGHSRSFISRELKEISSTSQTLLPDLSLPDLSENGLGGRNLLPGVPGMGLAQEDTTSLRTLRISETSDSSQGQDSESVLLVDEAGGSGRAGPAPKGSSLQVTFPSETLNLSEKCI

For orientation: Kb means the affinity of an antagonist, worked out from how it opposes an agonist. Take `Cc1cc(CCC(=O)NS(=O)(=O)C(F)(F)F)nn1Cc1cc(Cl)ccc1OCC1CCCC1` [Example 43, N-(3-[1-(5-Chloro-2-cyclopentylmethoxybenzyl)-5-methyl-1H-pyrazol-3-yl]-propionyl)C,C,C-trifluoromethanesulfon amide]: the Kb in assay [1] came to 400 nM; in assay [2], 1700 nM; in assay [3], 2 nM; in assay [4] it was 80 nM.

As for `CCC(CC)COc1ccc(Cl)cc1Cn1nc(CC(C)C(=O)O)cc1C` (racemic) [Example 68, 3-{1-[5-Chloro-2-(2-ethyl-butoxy)-benzyl]-5-methyl-1H-pyrazol-3-yl}-2-methyl-propionic acid], the Kb in assay [1] came to 400 nM; in assay [2], 5200 nM; in assay [3], 16 nM; in assay [4] it was 130 nM.

As to `CCC(CC)COc1ccc(Br)cc1Cn1nc(CCC(=O)NS(=O)(=O)C(F)(F)F)cc1C` [Example 17, N-(3-{1-[5-Bromo-2-(2-ethyl-butoxy)-benzyl]-5-methyl-1H-pyrazol-3-yl}-propionyl)-C,C,C-trifluoro-methanesulfonamide], the Kb in assay [1] is 400 nM; in assay [2], 1000 nM; in assay [3], below 1 nM; in assay [4] it was 35 nM.

`Cc1cc(CCC(=O)NS(=O)(=O)c2ccccc2)nn1Cc1cc(Cl)ccc1OCc1ccc(Cl)cc1` [Example 24, N-(3-[1-(5-Chloro-2-(4-chlorobenzyloxy)benzyl)-5-methyl-1H-pyrazol-3-yl]-propionyl)benzenesulfonamide]: the antagonist equilibrium constant (Kb) in assay [1] was 800 nM; in assay [2], 2500 nM; in assay [3], 30 nM; in assay [4], 900 nM.

`Cc1cc(CCC(=O)NS(=O)(=O)CC(F)(F)F)nn1Cc1cc(Cl)ccc1OCc1ccc(Cl)cc1` [Example 25, 2,2,2-trifluoroethanesulfonic acid-(3-[1-(5-Chloro-2-(4-chlorobenzyloxy)benzyl)-5-methyl-1H-pyrazol-3-yl]-propionyl)amide]: the Kb in assay [1] is 400 nM; in assay [2], 4500 nM; in assay [3], below 1 nM. Further, in assay [4], the “EP4 (FLIPR) Kb” value is “Ag”.

`Cc1cc(CCC(=O)O)nn1Cc1cc(OC(F)(F)F)ccc1OCc1ccc(Cl)cc1` [Example 51, 3-[1-[2-(4-Chloro-benzyloxy)-5-trifluoromethoxy-benzyl]-5-methyl-1H-pyrazol-3-yl]-propionic acid]: the antagonist equilibrium constant (Kb) in assay [1] turned out to be 20 nM; in assay [2], 6600 nM; in assay [4], 7000 nM. Further, the “TP (FLIPR) Kb” value in assay [3] is “Ag”.

As for `CCC(CC)COc1ccc(Br)cc1Cn1nc(CCC(=O)O)cc1C(C)(C)C` [Example 57, 3-{1-[5-Bromo-2-(2-ethyl-butoxy)-benzyl]-5-tert-butyl-1H-pyrazol-3-yl}-propionic acid], the Kb is 500 nM in assay [1], 6600 nM in assay [2], 500 nM in assay [3] and 700 nM in assay [4].

For `Cc1cc(CCC(=O)O)nn1Cc1cc(C(F)(F)F)ccc1OCc1ccc(Cl)cc1` [Example 52, 3-[1-[2-(4-Chloro-benzyloxy)-5-trifluoromethyl-benzyl]-5-methyl-1H-pyrazol-3-yl]-propionic acid], the results for the Kb in assay [1], in assay [2] and in assay [4] were 30 nM, 2800 nM and 1500 nM, respectively. Further, the “TP (FLIPR) Kb” value in assay [3] is listed as “PAg”.

Turning to `Cc1cc(CCC(=O)O)nn1Cc1cc(Cl)ccc1OCC(C)(C)C` [Example 35, 3-[1-(5-Chloro-2-(2,2-dimethylropoxy)benzyl)-5-methyl-1H-pyrazol-3-yl]-propionic acid], the Kb in assay [1] worked out at 110 nM; in assay [2] it was 5400 nM; in assay [3] it was 20 nM; in assay [4], 500 nM.
